Like-named read-outs stand apart in the source and are kept apart here.
Experiments:
[1] = Pharmacokinetic (PK) experiment in rats; type: in vivo; settings: male, SD, plasma, po, rat, intragastric 20 mg/kg
Description: Male SD rats weighing 300-350 g were fasted overnight prior to the experiment. The compounds to be tested were dissolved in 30% sulfobutyl ether-β-cyclodextrin (SBE-β-CD) and the rats were intragastric administration at 20 mg/kg. The blood was taken from the tails of the rats at 15 min, 30 min, and 1, 2, 3, 4, 6, 8 and 24 hours after administration, with about 0.3 ml of blood at each time point, and then the blood was placed in a centrifuge tube containing K2-EDTA, and centrifuged (2,000 g, 10 min, 4° C.) to take the plasma which was then stored in an ultra-low temperature freezer at −80° C. 50 μL, of plasma sample was mixed with 5 μL of internal standard (IS) and extracted with ethyl acetate. The residue was redissolved in acetonitrile after vacuum drying. The sample was filtered and injected into LC-MS/MS for analysis to determine the concentration of the compounds to be tested.
In the table: Tmax refers to the peak time, Cmax refers to the maximum plasma drug concentration, T1/2 is the half-life, AUClast refers to the area under the 0-24 hour time-concentration curve, AUCinf refers to the area under the 0-Inf time-concentration curve.

[2] = system: MDA-MB-231 breast cancer cells; assay: Cell cycle inhibition experiment (PI staining, flow cytometry); type: cell-based; settings: Homo sapiens, MDA-MB-231 cells, 24 h
Description: The cell cycle and apoptosis assay kit (Beyotime, C1052) used in this experiment is an assay kit for analyzing the cell cycle and apoptosis using the classic method of Propidium staining (PI staining). Propidium (PI) is a double-stranded DNA fluorescent dye. The combination of propidium and double-stranded DNA can produce fluorescence, and fluorescence intensity is proportional to the amount of double-stranded DNA. After DNA in cells is stained with propidium, the DNA content of the cells can be measured by flow cytometry, and then the cell cycle and apoptosis can be analyzed according to the distribution of DNA content.
MDA-MB-231 cells were seeded into a 6-well plate at 3×10^5 per well and cultured for 24 hours.
In tumor cell cycle, the binding of CDK4 and CDK6 to cyclin D promotes G1 phase into S phase. CDK4/6 inhibitor selectively arrests the G1 phase of tumor cells into S phase. The detection results of the cell cycle of MDA-MB-231 breast cancer cells by flow cytometry indicate that the CDK4/6 inhibitor compounds provided by the present disclosure stop the growth of G1 phase cells and reduce S phase cells in a concentration-dependent manner, as shown in the following table.

In the case of `CC(=O)c1c(C)c2cnc(Nc3ccc(C4CCN(CCS(C)(=O)=O)CC4)cn3)nc2n(C2CCCC2)c1=O` [Compound 1, 6-acetyl-8-cyclopentyl-5-methyl-2-((5-(1-(2-(methylsulfonyl)ethyl)piperidin-4-yl)pyridin-2-yl)amino)pyrido[2,3-d]pyrimidin-7(8H)-one], the Cmax [1] is reported as 1450 ng/mL, the Tmax [1] is reported as 1.5 h and the half-life [1] is reported as 90 min. It also gave an AUC(0-t) ([1]; 0-24 hour) of 4400 ng·h/mL, an AUC(0-inf) ([1]; 0-Inf) of 4540 ng·h/mL and an IC50 ([2]; read-out: IC50 (nM) G1 arrest) of 41.7 nM. For the same molecule, the IC50 ([2]; read-out: IC50 (nM) S decrease) was 46.1 nM.

From patent US10183941B2, “Pyrimidine or pyridopyridone compound and application thereof” (GUANGZHOU BEBETTER MEDICINE TECHNOLOGY CO., LTD., priority 2015, dated 2019)
